Data on 1 compound can be found in patent US5352667A, “Non-peptidic surrogates of the Arg-Gly-Asp sequence and pharmaceutical compositions comprising them” (priority 1991, dated 1994).

Entries after “also recorded” stand apart in the source; their conditions may differ.

This data set has as its system trypsin. Briefly: Treatment with trypsin (HPLC monitoring of hydrolysis). Particulars: 0.25% trypsin, 37° C., HPLC at 220 nm, aliquots 5, 30, 60 min. The format is in vitro ADME. The procedure:
Compound SF-6,5 and the GRGDS peptide (50 μg in 100 μl PBS) were incubated at 37° C. and exposed to 0.25% trypsin (Gibco; 50μl in modified Puck's buffer). Aliquots were taken after 5, 30 and 60 min and monitored by HPLC at 220 nm.

As for `N=C(N)NCCCCCC(=O)NCCCCC(=O)O` [SF-6,5, 6-aza-7-oxo-12-quanidino-dodecanoic acid], the Stability to trypsin entry is recorded as “intact after 60 min; also recorded: completely resistant to trypsin-induced hydrolysis”.
